Results published in patent publication US20120122860A1, “SOLID FORMS OF SULFONAMIDES AND AMINO ACIDS” (Plexxikon, Inc., priority 2009, published 2012).
pIC50: −log10 of the molar value.

Columns and labels:
C-Raf = C-Raf (Homo sapiens, UniProt P04049); test: Kinase activity assay, C-Raf
B-Raf V600E = B-Raf V600E (Homo sapiens, UniProt P15056, V600E); test: Kinase activity assay, B-Raf V600E; format: biochemical; details: read-out: activity toward kinase B-Raf V600E, IC50
B-Raf = B-Raf (Homo sapiens, UniProt P15056); test: Kinase activity assay, B-Raf; format: biochemical; details: read-out: activity toward kinase B-Raf, IC50
Kdr = Kdr (Homo sapiens, UniProt P35968); test: Kinase activity assay, Kdr

Measured: pIC50

Sequence of B-Raf V600E (P15056 whole entry V600E): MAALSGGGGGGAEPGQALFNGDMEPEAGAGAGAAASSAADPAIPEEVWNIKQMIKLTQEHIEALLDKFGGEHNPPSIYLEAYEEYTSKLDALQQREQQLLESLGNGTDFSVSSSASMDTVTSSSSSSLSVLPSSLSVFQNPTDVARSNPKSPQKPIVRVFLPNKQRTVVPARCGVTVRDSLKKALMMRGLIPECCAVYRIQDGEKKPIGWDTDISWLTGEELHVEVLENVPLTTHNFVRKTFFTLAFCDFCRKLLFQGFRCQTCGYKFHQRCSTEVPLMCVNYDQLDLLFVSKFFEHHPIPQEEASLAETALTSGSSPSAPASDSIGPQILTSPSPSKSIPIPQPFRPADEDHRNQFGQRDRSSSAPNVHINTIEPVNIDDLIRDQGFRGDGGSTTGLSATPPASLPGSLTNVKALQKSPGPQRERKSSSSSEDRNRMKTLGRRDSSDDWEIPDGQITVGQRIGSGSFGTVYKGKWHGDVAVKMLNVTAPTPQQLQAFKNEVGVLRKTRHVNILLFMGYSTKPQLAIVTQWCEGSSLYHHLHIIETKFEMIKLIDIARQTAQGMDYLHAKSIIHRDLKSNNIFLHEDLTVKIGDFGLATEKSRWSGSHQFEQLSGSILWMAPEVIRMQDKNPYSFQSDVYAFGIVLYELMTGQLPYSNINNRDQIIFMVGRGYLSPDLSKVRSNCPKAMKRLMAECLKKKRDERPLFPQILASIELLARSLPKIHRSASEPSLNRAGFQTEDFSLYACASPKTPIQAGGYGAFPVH
Sequence of C-Raf (P04049 whole entry): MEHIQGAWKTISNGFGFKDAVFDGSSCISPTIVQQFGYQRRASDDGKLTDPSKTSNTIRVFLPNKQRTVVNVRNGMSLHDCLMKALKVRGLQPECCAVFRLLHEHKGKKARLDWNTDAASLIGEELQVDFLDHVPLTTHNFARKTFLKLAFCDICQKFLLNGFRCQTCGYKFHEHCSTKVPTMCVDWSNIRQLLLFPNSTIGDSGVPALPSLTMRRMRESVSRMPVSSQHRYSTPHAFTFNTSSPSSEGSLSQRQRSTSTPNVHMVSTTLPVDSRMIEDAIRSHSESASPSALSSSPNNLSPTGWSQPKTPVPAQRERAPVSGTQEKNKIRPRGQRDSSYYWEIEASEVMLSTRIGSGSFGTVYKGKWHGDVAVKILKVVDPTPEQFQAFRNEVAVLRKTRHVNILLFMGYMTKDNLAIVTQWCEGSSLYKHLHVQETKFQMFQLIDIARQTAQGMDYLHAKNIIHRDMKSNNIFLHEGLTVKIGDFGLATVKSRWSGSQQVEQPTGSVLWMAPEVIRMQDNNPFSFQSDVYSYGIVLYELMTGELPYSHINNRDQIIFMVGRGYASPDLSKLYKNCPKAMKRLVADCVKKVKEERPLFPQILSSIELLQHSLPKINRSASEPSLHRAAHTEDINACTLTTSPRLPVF
Sequence of B-Raf (P15056 whole entry): as the sequence (P15056 whole entry V600E) above, with E600V counted along it
Sequence of Kdr (P35968 20-1356): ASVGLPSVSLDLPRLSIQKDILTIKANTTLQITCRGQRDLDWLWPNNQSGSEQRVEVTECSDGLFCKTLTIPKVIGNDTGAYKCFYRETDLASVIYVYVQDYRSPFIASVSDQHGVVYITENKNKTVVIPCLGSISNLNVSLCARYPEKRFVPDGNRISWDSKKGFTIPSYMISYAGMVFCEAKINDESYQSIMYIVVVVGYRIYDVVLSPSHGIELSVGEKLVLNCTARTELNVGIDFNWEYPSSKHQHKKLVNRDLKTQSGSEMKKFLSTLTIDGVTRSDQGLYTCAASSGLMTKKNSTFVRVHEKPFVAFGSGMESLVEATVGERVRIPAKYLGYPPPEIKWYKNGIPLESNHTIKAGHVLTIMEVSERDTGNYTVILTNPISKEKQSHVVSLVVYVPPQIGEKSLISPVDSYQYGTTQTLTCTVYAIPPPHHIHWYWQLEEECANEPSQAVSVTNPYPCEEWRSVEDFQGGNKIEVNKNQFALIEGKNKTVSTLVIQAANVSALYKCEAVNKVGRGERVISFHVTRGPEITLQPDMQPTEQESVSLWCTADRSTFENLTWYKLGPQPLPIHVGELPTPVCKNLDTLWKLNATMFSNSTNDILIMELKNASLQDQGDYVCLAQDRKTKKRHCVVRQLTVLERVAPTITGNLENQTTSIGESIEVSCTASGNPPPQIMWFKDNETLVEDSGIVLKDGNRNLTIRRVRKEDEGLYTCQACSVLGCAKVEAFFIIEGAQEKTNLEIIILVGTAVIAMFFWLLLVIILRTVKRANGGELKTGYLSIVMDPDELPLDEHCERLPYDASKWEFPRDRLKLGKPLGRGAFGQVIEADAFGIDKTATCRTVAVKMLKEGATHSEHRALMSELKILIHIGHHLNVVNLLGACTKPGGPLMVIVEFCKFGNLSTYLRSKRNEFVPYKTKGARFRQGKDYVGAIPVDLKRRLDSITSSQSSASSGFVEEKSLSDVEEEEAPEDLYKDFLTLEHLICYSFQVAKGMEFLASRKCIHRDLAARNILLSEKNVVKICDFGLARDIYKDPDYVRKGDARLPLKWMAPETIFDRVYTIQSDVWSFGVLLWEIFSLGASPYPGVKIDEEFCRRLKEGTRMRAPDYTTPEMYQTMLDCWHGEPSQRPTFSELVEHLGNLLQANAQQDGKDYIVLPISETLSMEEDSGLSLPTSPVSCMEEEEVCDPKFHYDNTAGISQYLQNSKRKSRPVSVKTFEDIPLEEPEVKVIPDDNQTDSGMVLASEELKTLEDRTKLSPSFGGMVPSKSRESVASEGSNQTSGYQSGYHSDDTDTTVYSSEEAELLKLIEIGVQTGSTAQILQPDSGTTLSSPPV

CCC(C)S(=O)(=O)Nc1cccc(C(=O)c2c[nH]c3ncc(C#N)cc23)c1F (stereo not shown) [P-2413, Butane-2-sulfonic acid [3-(5-cyano-1H-pyrrolo[2,3-b]pyridine-3-carbonyl)-2-fluoro-phenyl]-amide]
≥ 5.00: C-Raf | B-Raf V600E | B-Raf

N#Cc1cnc2[nH]cc(C(=O)c3c(F)ccc(NS(=O)(=O)c4ccc(F)cc4)c3F)c2c1 [P-2028, N-[3-(5-Cyano-1H-pyrrolo[2,3-b]pyridine-3-carbonyl)-2,4-difluoro-phenyl]-4-fluoro-benzenesulfonamide]
≥ 5.00: C-Raf | B-Raf V600E | B-Raf

N#Cc1cnc2[nH]cc(C(=O)c3cccc(NS(=O)(=O)C4CCC4)c3F)c2c1 [P-2418, Cyclobutanesulfonic acid [3-(5-cyano-1H-pyrrolo[2,3-b]pyridine-3-carbonyl)-2-fluoro-phenyl]-amide]
≥ 5.00: C-Raf | B-Raf V600E | B-Raf

CCS(=O)(=O)Nc1ccc(F)c(C(=O)c2c[nH]c3ncc(C#N)cc23)c1F [P-2281, Ethanesulfonic acid [3-(5-cyano-1H-pyrrolo[2,3-b]pyridine-3-carbonyl)-2,4-difluoro-phenyl]-amide]
≥ 5.00: all assays above

N#Cc1cnc2[nH]cc(C(=O)c3cccc(NS(=O)(=O)C4CCCCC4)c3F)c2c1 [P-2416, Cyclohexanesulfonic acid [3-(5-cyano-1H-pyrrolo[2,3-b]pyridine-3-carbonyl)-2-fluoro-phenyl]-amide]
≥ 5.00: C-Raf | B-Raf V600E | B-Raf

N#Cc1cnc2[nH]cc(C(=O)c3cccc(NS(=O)(=O)c4ccc(F)cc4)c3F)c2c1 [P-2050, N-[3-(5-Cyano-1H-pyrrolo[2,3-b]pyridine-3-carbonyl)-2-fluoro-phenyl]-4-fluoro-benzenesulfonamide]
≥ 5.00: C-Raf | B-Raf V600E | B-Raf

N#Cc1cnc2[nH]cc(C(=O)c3cccc(NS(=O)(=O)CCC(F)(F)F)c3F)c2c1 [P-2415, 3,3,3-Trifluoro-propane-1-sulfonic acid [3-(5-cyano-1H-pyrrolo[2,3-b]pyridine-3-carbonyl)-2-fluoro-phenyl]-amide]
≥ 5.00: C-Raf | B-Raf V600E | B-Raf

Cn1cc(S(=O)(=O)Nc2cccc(C(=O)c3c[nH]c4ncc(C#N)cc34)c2F)cn1 [P-2090, 1-Methyl-1H-pyrazole-4-sulfonic acid [3-(5-cyano-1H-pyrrolo[2,3-b]pyridine-3-carbonyl)-2-fluoro-phenyl]-amide]
≥ 5.00: C-Raf | B-Raf V600E | B-Raf

Cn1cc(S(=O)(=O)Nc2ccc(F)c(C(=O)c3c[nH]c4ncc(C#N)cc34)c2F)cn1 [P-2084, 1-Methyl-1H-pyrazole-4-sulfonic acid [3-(5-cyano-1H-pyrrolo[2,3-b]pyridine-3-carbonyl)-2,4-difluoro-phenyl]-amide]
≥ 5.00: C-Raf | B-Raf V600E | B-Raf

CC(C)CS(=O)(=O)Nc1cccc(C(=O)c2c[nH]c3ncc(C#N)cc23)c1F [P-2412, 2-Methyl-propane-1-sulfonic acid [3-(5-cyano-1H-pyrrolo[2,3-b]pyridine-3-carbonyl)-2-fluoro-phenyl]-amide]
≥ 5.00: C-Raf | B-Raf V600E | B-Raf

COc1ccc(S(=O)(=O)Nc2ccc(F)c(C(=O)c3c[nH]c4ncc(C#N)cc34)c2F)cn1 [P-2085, 6-Methoxy-pyridine-3-sulfonic acid [3-(5-cyano-1H-pyrrolo[2,3-b]pyridine-3-carbonyl)-2,4-difluoro-phenyl]-amide]
≥ 5.00: C-Raf | B-Raf V600E | B-Raf

COc1ncc(-c2cnc3[nH]cc(C(=O)c4cccc(NS(=O)(=O)N(C)C)c4F)c3c2)cn1 [P-2424, N,N-dimethylamino-sulfonic acid {2-fluoro-3-[5-(2-methoxy-pyrimidin-5-yl)-1H-pyrrolo[2,3-b]pyridine-3-carbonyl]-phenyl}-amide]
≥ 5.00: C-Raf | B-Raf V600E | Kdr
